Measurements from patent US8362004B2, “Piperazine analogs as broad-spectrum influenza antivirals” (priority 2010, dated 2013).
Like-named read-outs stand apart in the source and are kept apart here.

How the values were obtained:
[1] = test system: Influenza A/Solomon Islands/3/06; assay: Antiviral assay in MDCK cells, viral neuraminidase (MUNANA) readout, A/H1N1/Solomon Islands; format: cell-based; details: read-out: A/H1N1/Solomon Islands Activity
[2] = test system: A/H5N1/Duck_PA; assay: microbe, parasite or virus in culture; format: cell-based, influenza A
[3] = test system: influenza A/WSN/33; assay: Antiviral assay in MDCK cells, viral neuraminidase (MUNANA) readout, A/H1N1/WSN; format: cell-based; details: read-out: A/H1N1/WSN Activity
[4] = test system: influenza A/Brisbane/10/2007; assay: Antiviral assay in MDCK cells, viral neuraminidase (MUNANA) readout, A/H3N2/Brisbane; format: cell-based; details: read-out: A/H3N2/Brisbane Activity
[5] = test system: A/H5N1/Duck_MN; assay: microbe, parasite or virus in culture; format: cell-based, influenza A
[6] = test system: A/H5N1/Gull_PA; assay: microbe, parasite or virus in culture; format: cell-based, influenza A
[7] = MDCK cells, MOI 0.001, 48 hrs post infection, viral NA activity

Row | SMILES | EC50 [1, 7] [nM] | EC50 ([2]; read-out: A/H5N1/Duck_PA) [nM] | EC50 [3, 7] [nM] | EC50 [4, 7] [nM] | EC50 ([5]; read-out: A/H5N1/Duck_MN) [nM] | EC50 ([6]; read-out: A/H5N1/Gull_PA) [nM] | EC50 ([1]; Influenza A virus, H1N1, MDCK, 48 h) [nM] | EC50 ([2]; Influenza A virus, H5N1, read-out: A/H5N1/Duck_PA) [nM] | EC50 ([3]; Influenza A virus, MDCK, 48 h) [nM] | EC50 ([4]; Influenza A virus, H3N2, MDCK, 48 h) [nM] | EC50 ([5]; Influenza A virus, H5N1, read-out: A/H5N1/Duck_MN) [nM] | EC50 ([6]; Influenza A virus, H5N1, read-out: A/H5N1/Gull_PA) [nM]
1 | COc1ccccc1-c1nnn(C)c1C(=O)N1CCN(c2cc(NC(=O)c3ccc(N4CCOC4=O)cc3)c([N+](=O)[O-])cc2Cl)CC1 [Example 93] | < 100 | < 1000 | < 100 | < 1000 | < 1000 | < 100 |  |  |  |  |  | 
2 | COc1ccccc1-c1noc(C)c1C(=O)N1CCN(c2cc(NC(=O)c3nccs3)c([N+](=O)[O-])cc2Cl)CC1 [Example 5] | < 100 | < 100 | < 100 | < 1000 | < 100 | < 100 |  |  |  |  |  | 
3 | COc1ccccc1-c1noc(C)c1C(=O)N1CCN(c2cc(NC(=O)c3ccc(N(C)C)cc3)c([N+](=O)[O-])cc2Cl)CC1 [Example 14, N-(4-chloro-5-(4-(3-(2-methoxyphenyl)-5-methylisoxazole-4-carbonyl)piperazin-1-yl)-2-nitrophenyl)-4-(dimethylamino)benzamide] |  |  |  |  |  |  | < 100 | < 1000 | < 100 | < 100 | < 100 | < 100
